Measured values published in US11478461B2, “[1.1.1] bicyclo compounds as indoleamine 2,3-dioxygenase inhibitors” (Merck Sharp & Dohme Corp., priority 2018, dated 2022).

Tests used:
[1] = target: T1, IDO1 (Homo sapiens, UniProt P14902); test: IDO1 Cellular Assay in Hela Cells Stimulated with IFNγ; type: cell-based; conditions: IFNγ 100 ng/mL, 300 uM L-tryptophan, about 48 hours, fluorescence readout, read-out: IDO1 HELA Cell Assay, IC50
In short: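 HeLa cells stimulated with 100 ng/mL IFNγ, supplemented with 300 uM L-tryptophan, incubated 48 h at 37° C with ten 3-fold compound dilutions. Unstimulated cells served as Max-E control. Kynurenine detected by fluorescence (ex 400/em 510 nm) after overnight methyl isonipecotate reaction; IC50 by four-parameter logistic fit.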

[2] = target: T1, IDO1; test: IDO1 Human whole blood Assay; type: cell-based; design: Human whole blood was drawn in sodium heparin coated tubes from healthy internal donors; from tissue; host or cells: Human whole blood from healthy donors, stimulated with LPS and IFNγ; conditions: LPS and IFNγ 100 ng/mL, 18 h, kynurenine by LC/MS/MS
Description: Compounds to be tested were serially diluted in ten 3-fold steps in DMSO starting from 10 mM. 3 μL of compound dilutions or DMSO alone were then dispensed from the dilution plate into a polypropylene 96-well assay plate containing 97 μL of RPMI using an Echo 555 acoustic liquid handler (Labcyte). LPS and IFNγ was prepared in RPMI to a 10× of final conc. (1000 ng/mL), final concentration is 100 ng/mL.
Human whole blood was drawn in sodium heparin coated tubes from healthy internal donors. Two hundred forty μL of blood was transferred to each of the wells of a v-bottom 96 well plate. Thirty μL of compound was transferred from intermediate dilution plate, and incubated for 15 min. Thirty μL from stimulants was then transferred to blood and mixed thoroughly. Plate was covered with breathable membrane and incubated at 37° C. for overnight (18 h).
On day 2 isotope labeled standard of kynurenine and tryptophan was made in water at 10× concentration and 30 μL was added to the blood at 3 μM final concentration. The assay plates were centrifuged at 300×G for 10 min with no brake to separate plasma from red blood cells. Sixty μL of plasma samples was removed without disturbing red blood cells. Plasma was diluted with RPMI in 1:1 ratio and proteins were precipitated out with two volume of acetonitrile. The plates were centrifuged at 4000×G for 60 min. Twenty μL of supernatant was carefully transferred to a 384 well plate containing 40 μL of 0.1% formic acid in water and analyzed by LC/MS/MS.
LC/MS/MS analyses were performed using Thermo Fisher's LX4-TSQ Quantum Ultra system. This system consists of four Agilent binary high-performance liquid chromatography (HPLC) pumps and a TSQ Quantum Ultra triple quadruple MS/MS instrument. For each sample, 5 μL were injected onto an Atlantis T3 column (2.1 mm×150 mm, 3 μm particle size) from Waters. The mobile phase gradient pumped at 0.8 mL/min was used to elute the analytes from the column at 25° C. The elution started at 0% B increasing linearly to 25% B at 6.5 min, holding at 25% for 1 min, re-equilibrating to 10 min. Mobile phase A consisted of 0.1% formic acid in water. Mobile phase B consisted of 0.1% of formic acid in acetonitrile. Data was acquired in positive mode using a HESI interface. The operational parameters for the TSQ Quantum Ultra instrument were a spray voltage of 4000 V, capillary temperature of 380° C., vaporizer temperature 400° C., shealth gas 60 arbitrary units, Aux gas 20 arbitrary units, tube lens 85 and collision gas 1.2 mTorr. SRM chromatograms of kynurenine (Q1: 209.2>Q3:94.0) and internal standard (Q1: 215.3>Q3:98.2) were collected for 90 sec. The peak area was integrated by Xcalibur Quan software. The ratios between the kynurenine generated in the reaction and 2D6-Kynurenine spiked-in internal standard were used to generate percentage inhibition and IC50 values. Compounds were titrated and IC50's were calculated by 4 parameter sigmoidal curve fitting formula.
The biological activity data of selective compounds using the IDO1 human whole blood assay described above are summarized in the table below.

T1 sequence (P14902 whole entry): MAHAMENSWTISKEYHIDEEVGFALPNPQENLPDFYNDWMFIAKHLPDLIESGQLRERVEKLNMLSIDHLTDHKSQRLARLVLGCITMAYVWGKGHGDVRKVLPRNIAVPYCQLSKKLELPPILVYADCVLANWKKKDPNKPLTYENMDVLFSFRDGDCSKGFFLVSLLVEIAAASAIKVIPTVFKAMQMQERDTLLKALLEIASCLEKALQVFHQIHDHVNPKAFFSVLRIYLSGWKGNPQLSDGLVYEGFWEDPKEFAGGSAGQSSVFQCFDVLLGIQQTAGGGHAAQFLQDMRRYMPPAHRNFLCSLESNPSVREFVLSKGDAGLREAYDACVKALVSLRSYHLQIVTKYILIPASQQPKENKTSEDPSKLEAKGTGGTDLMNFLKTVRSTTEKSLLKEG

Row | SMILES | IC50 [1] | IC50 [2]
1 | CC(C(=O)Nc1ccc(Cl)nc1)C12CC(NC(=O)c3ccc(Cl)c(Cl)c3)(C1)C2 (single isomer, unassigned) [Example 15, 3,4-dichloro-N-(3-(1-((6-chloropyridin-3-yl)amino)-1-oxopropan-2-yl)bicyclo[1.1.1]pentan-1-yl)benzamide] | 4.46 nM | 1100 nM
2 | C[C@H](C(=O)Nc1ccc(F)cc1)C12CC(NC(=O)OC3CCCC3)(C1)C2 [Example 77, cyclopentyl (S)-(3-(1-((4-fluorophenyl)amino)-1-oxopropan-2-yl)bicyclo[1.1.1]pentan-1-yl)carbamate] |  | 452 nM
3 | CC(C(=O)Nc1ccc(F)nc1)C12CC(NC(=O)c3ccc(Cl)c(Cl)c3)(C1)C2 (single isomer, unassigned) [Example 14, 3,4-dichloro-N-(3-(1-((6-fluoropyridin-3-yl)amino)-1-oxopropan-2-yl)bicyclo[1.1.1]pentan-1-yl)benzamide] | 6.16 nM | 406 nM
4 | O=C(NC12CC(C3(C(=O)Nc4ccc(F)cc4)CC3)(C1)C2)c1ccc(Cl)c(Cl)c1 [Example 100, 3,4-Dichloro-N-(3-(1-((4-fluorophenyl)carbamoyl)cyclopropyl)bicyclo[1.1.1]pentan-1-yl)benzamide] | 3.35 nM | 454 nM
5 | O=C(NC12CC(C3(NC(=O)c4ccc(F)cc4)CC3)(C1)C2)c1ccc(Cl)c(Cl)c1 [Example 24, 3,4-Dichloro-N-(3-(1-(4-fluorobenzamido)cyclopropyl)bicyclo[1.1.1]pentan-1-yl)benzamide] | 4.13 nM | 401 nM
6 | C[C@H](C(=O)Nc1ccc(F)cc1)C12CC(NC(=O)c3cc(F)c(F)c(F)c3)(C1)C2 [Example 145, (S)-3,4,5-trifluoro-N-(3-(1-((4-fluorophenyl)amino)-1-oxopropan-2-yl)bicyclo[1.1.1]pentan-1-yl)benzamide] | 3.04 nM | 49 nM
7 | CC(C(=O)Nc1ccc(F)cc1)C12CC(NC(=O)c3ccc(Cl)c(Cl)c3)(C1)C2 (single isomer, unassigned) [Example 8, 3,4-dichloro-N-(3-(1-((4-fluorophenyl)amino)-1-oxopropan-2-yl)bicyclo[1.1.1]pentan-1-yl)benzamide] | 3.1 nM | 781 nM
8 | CC(C(=O)Nc1ccc(Cl)nc1)C12CC(NC(=O)c3cccc(Cl)c3)(C1)C2 (single isomer, unassigned) [Example 17, 3-chloro-N-(3-(1-((6-chloropyridin-3-yl)amino)-1-oxopropan-2-yl)bicyclo[1.1.1]pentan-1-yl)benzamide] | 5.26 nM | 179 nM
9 | CC(C(=O)Nc1ccc(F)cc1)C12CC(NC(=O)c3cccc(Cl)c3)(C1)C2 (single isomer, unassigned) [Example 1, 3-Chloro-N-(3-(1-((4-fluorophenyl)amino)-1-oxopropan-2-yl)bicyclo[1.1.1]pentan-1-yl)benzamide] | 3.05 nM | 113 nM
10 | CC(NC(=O)c1ccc(F)cc1)C12CC(NC(=O)c3ccc(Cl)c(Cl)c3)(C1)C2 (single isomer, unassigned) [Example 21, 3,4-Dichloro-N-(3-(1-(4-fluorobenzamido)ethyl)bicyclo [1.1.1]pentan-1-yl) Benzamide] | 908 nM | 
11 | Cc1cc(C(=O)NC23CC([C@@H](C)C(=O)Nc4ccc(F)cc4)(C2)C3)ccc1F [Example 39, 4-fluoro-N-[3-[(1R)-2-(4-fluoroanilino)-1-methyl-2-oxo-ethyl]-1-bicyclo[1.1.l]pentanyl]-3-methyl-benzamide] | 201 nM | 
12 | CC(C(=O)Nc1ccc(Cl)cc1)C12CC(NC(=O)OC3CC3)(C1)C2 (single isomer, unassigned) [Example 19, Cyclopropyl (3-(1-((4-chlorophenyl)amino)-1-oxopropan-2-yl)bicyclo [1.1.1]pentan-1-yl) carbamate] | 564 nM | 

Other lines, results leading:

Row | IC50 [1] | IC50 [2] | SMILES
13 | 2.12 nM | 139 nM | Cc1cc(C(=O)NC23CC([C@@H](C)C(=O)Nc4ccc(F)cc4)(C2)C3)ccc1F [Example 46, 4-fluoro-N-[3-[(1R)-2-(4-fluoroanilino)-1-methyl-2-oxo-ethyl]-1-bicyclo[1.1.l]pentanyl]-3-methyl-benzamide]
14 | 1.55 nM | 924 nM | CC(C(=O)Nc1ccc(F)cc1)C12CC(NC(=O)c3ccc(Cl)c(Cl)c3)(C1)C2 (single isomer, unassigned) [Example 9, 3,4-dichloro-N-(3-(1-((4-fluorophenyl)amino)-1-oxopropan-2-yl)bicyclo[1.1.1]pentan-1-yl)benzamide]
15 | 2.14 nM | 138 nM | Cc1ccc(C(=O)NC23CC([C@@H](C)C(=O)Nc4ccc(F)cc4)(C2)C3)cc1Cl [Example 36, 3-chloro-N-[3-[(1R)-2-(4-fluoroanilino)-1-methyl-2-oxo-ethyl]-1-bicyclo[1.1.1]pentanyl]-4-methyl-benzamide]
16 | 1.05 nM | 48.2 nM | CC(C(=O)Nc1ccc(Cl)cc1)C12CC(NC(=O)c3cccc(Cl)c3)(C1)C2 (single isomer, unassigned) [Example 7, 3-Chloro-N-(3-(1-((4-chlorophenyl)amino)-1-oxopropan-2-yl)bicyclo [1.1.1]pentan-1-yl) Benzamide]
17 | 2.12 nM | 44.7 nM | O=C(NC12CC(C3(C(=O)Nc4ccc(F)cc4)CCC3)(C1)C2)c1ccc(Cl)c(Cl)c1 [Example 5, 3,4-Dichloro-N-(3-(1-((4-fluorophenyl)carbamoyl)cyclobutyl)bicyclo[1.1.1]pentan-1-yl)benzamide]
18 | 1.57 nM | 525 nM | CC(C(=O)Nc1ccc(Cl)c(F)c1)C12CC(NC(=O)c3cccc(Cl)c3)(C1)C2 (single isomer, unassigned) [Example 11, 3-chloro-N-(3-(1-((4-chloro-3-fluorophenyl)amino)-1-oxopropan-2-yl)bicyclo[1.1.1]pentan-1-yl)benzamide]
19 | 2.5 nM | 53.3 nM | C[C@H](C(=O)Nc1ccc(F)cc1)C12CC(NC(=O)c3ccc(Cl)cc3F)(C1)C2 [Example 52, 4-chloro-2-fluoro-N-[3-[(1S)-2-(4-fluoroanilino)-1-methyl-2-oxo-ethyl]-1-bicyclo[1.1.1]pentanyl]benzamide]
20 | 2.51 nM | 328 nM | C[C@H](C(=O)Nc1ccc(F)cc1)C12CC(NC(=O)c3cc(Cl)ccc3F)(C1)C2 [Example 56, 5-chloro-2-fluoro-N-[3-[(1S)-2-(4-fluoroanilino)-1-methyl-2-oxo-ethyl]-1-bicyclo[1.1.1]pentanyl]benzamide]
